Measured values as given in PubChem BioAssay (NCI).
“And” between values parts separate entries of the source, which are not always exact repeats. Equal values may be shown once.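 Briefly, cells in 96-well plates were exposed to five compound concentrations for 48 h, and endpoints were estimated by linear interpolation. GI50 is the concentration that inhibits growth by half. TGI: concentration producing complete growth inhibition.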

Experiments:
Assay in all cases: growth of human tumour cells (NCI), 48 h
NCI-H226 lung = tested on: NCI-H226 lung
OVCAR-8 ovarian = tested on: OVCAR-8 ovarian
XF 498 CNS = tested on: XF 498 CNS
OVCAR-5 ovarian = tested on: OVCAR-5 ovarian
MOLT-4 leukemia = tested on: MOLT-4 leukemia
KM12 colon = tested on: KM12 colon
K-562 leukemia = tested on: K-562 leukemia
HOP-62 NSCLC = tested on: HOP-62 NSCLC
SF-539 CNS = tested on: SF-539 CNS
SK-MEL-28 melanoma = tested on: SK-MEL-28 melanoma
NCI-H522 lung = tested on: NCI-H522 lung
SK-MEL-5 melanoma = tested on: SK-MEL-5 melanoma
UACC-62 melanoma = tested on: UACC-62 melanoma
CCRF-CEM leukemia = tested on: CCRF-CEM leukemia
SF-268 CNS = tested on: SF-268 CNS
M19-MEL melanoma = tested on: M19-MEL melanoma
KM20L2 colon = tested on: KM20L2 colon
UO-31 renal = tested on: UO-31 renal
RPMI-8226 leukemia = tested on: RPMI-8226 leukemia
UACC-257 melanoma = tested on: UACC-257 melanoma
SNB-75 CNS = tested on: SNB-75 CNS
CAKI-1 renal = tested on: CAKI-1 renal
HOP-18 NSCLC = tested on: HOP-18 NSCLC
SK-MEL-2 melanoma = tested on: SK-MEL-2 melanoma
RXF 393 renal = tested on: RXF 393 renal
M14 melanoma = tested on: M14 melanoma
SK-OV-3 ovarian = tested on: SK-OV-3 ovarian
NCI-H460 lung = tested on: NCI-H460 lung
DMS 273 small cell lung = tested on: DMS 273 small cell lung
NCI-H23 lung = tested on: NCI-H23 lung
HL-60(TB) leukemia = tested on: HL-60(TB) leukemia
ACHN renal = tested on: ACHN renal
SNB-78 CNS = tested on: SNB-78 CNS
HCT-15 colon = tested on: HCT-15 colon
A549 NSCLC = tested on: A549 NSCLC
SF-295 CNS = tested on: SF-295 CNS
DLD-1 colon = tested on: DLD-1 colon
A498 renal = tested on: A498 renal
HCT-116 colon = tested on: HCT-116 colon
HOP-92 NSCLC = tested on: HOP-92 NSCLC
SNB-19 CNS = tested on: SNB-19 CNS
SW-620 colon = tested on: SW-620 colon
HCC-2998 colon = tested on: HCC-2998 colon
EKVX NSCLC = tested on: EKVX NSCLC
U251 CNS = tested on: U251 CNS
SN12C renal = tested on: SN12C renal
LXFL 529 NSCLC = tested on: LXFL 529 NSCLC
OVCAR-3 ovarian = tested on: OVCAR-3 ovarian
SR leukemia = tested on: SR leukemia
MALME-3M melanoma = tested on: MALME-3M melanoma
COLO 205 colon = tested on: COLO 205 colon
TK-10 renal = tested on: TK-10 renal
HT29 colon = tested on: HT29 colon
DMS 114 small cell lung = tested on: DMS 114 small cell lung
IGROV1 ovarian = tested on: IGROV1 ovarian
LOX IMVI melanoma = tested on: LOX IMVI melanoma
786-0 renal = tested on: 786-0 renal
OVCAR-4 ovarian = tested on: OVCAR-4 ovarian

## Nc1nc(N)c2ncn(CC(CO)CC(c3ccccc3)P(=O)(O)O)c2n1 (stereo unspecified)
NCI-H226 lung
  TGI: > 100 µM
OVCAR-8 ovarian
  TGI: > 100 µM
XF 498 CNS
  TGI: > 100 µM
OVCAR-5 ovarian
  TGI: > 100 µM
MOLT-4 leukemia
  TGI: > 100 µM
KM12 colon
  TGI: > 100 µM
K-562 leukemia
  TGI: > 100 µM
HOP-62 NSCLC
  TGI: > 100 µM
SF-539 CNS
  TGI: > 100 µM
SK-MEL-28 melanoma
  TGI: > 100 µM
NCI-H522 lung
  TGI: > 100 µM
SK-MEL-5 melanoma
  TGI: > 100 µM
UACC-62 melanoma
  TGI: > 100 µM
CCRF-CEM leukemia
  TGI: > 100 µM
SF-268 CNS
  TGI: > 100 µM
M19-MEL melanoma
  TGI: > 100 µM
KM20L2 colon
  TGI: > 100 µM
UO-31 renal
  TGI: > 100 µM
RPMI-8226 leukemia
  TGI: > 100 µM
UACC-257 melanoma
  TGI: > 100 µM
SNB-75 CNS
  TGI: > 100 µM
CAKI-1 renal
  TGI: > 100 µM
HOP-18 NSCLC
  TGI: > 100 µM
SK-MEL-2 melanoma
  TGI: > 100 µM
RXF 393 renal
  TGI: > 100 µM
M14 melanoma
  TGI: 10.4 µM
SK-OV-3 ovarian
  TGI: > 100 µM
NCI-H460 lung
  TGI: > 100 µM
DMS 273 small cell lung
  TGI: > 100 µM
NCI-H23 lung
  TGI: > 100 µM
HL-60(TB) leukemia
  TGI: > 100 µM
ACHN renal
  TGI: > 100 µM
SNB-78 CNS
  TGI: > 100 µM
HCT-15 colon
  TGI: > 100 µM
A549 NSCLC
  TGI: > 100 µM
SF-295 CNS
  TGI: > 100 µM
DLD-1 colon
  TGI: > 100 µM
A498 renal
  TGI: > 100 µM
HCT-116 colon
  TGI: > 100 µM
HOP-92 NSCLC
  TGI: > 100 µM
SNB-19 CNS
  TGI: > 100 µM
SW-620 colon
  TGI: > 100 µM
HCC-2998 colon
  TGI: > 100 µM
EKVX NSCLC
  TGI: > 100 µM
U251 CNS
  TGI: > 100 µM
SN12C renal
  TGI: > 100 µM
LXFL 529 NSCLC
  GI50: > 100 µM and 13.8 µM
  TGI: > 100 µM and 99.3 µM
OVCAR-3 ovarian
  TGI: > 100 µM
SR leukemia
  GI50: > 100 µM and 35 µM
  TGI: > 100 µM
MALME-3M melanoma
  TGI: > 100 µM
COLO 205 colon
  TGI: > 100 µM
TK-10 renal
  TGI: > 100 µM
HT29 colon
  TGI: > 100 µM
DMS 114 small cell lung
  TGI: > 100 µM
IGROV1 ovarian
  TGI: > 100 µM
LOX IMVI melanoma
  TGI: > 100 µM

## Cc1c2ncccc2c(C)c2c1[nH]c1ccccc12
NCI-H226 lung
  TGI: 35.9 µM
OVCAR-8 ovarian
  TGI: 27.8 µM
XF 498 CNS
  TGI: 25.3 µM
786-0 renal
  TGI: 23.2 µM
OVCAR-5 ovarian
  TGI: 27.1 µM
MOLT-4 leukemia
  TGI: 6.5 µM
KM12 colon
  TGI: 29 µM
K-562 leukemia
  TGI: 41.7 µM
HOP-62 NSCLC
  TGI: 24.1 µM
SF-539 CNS
  TGI: 26 µM
SK-MEL-28 melanoma
  TGI: 28.9 µM
NCI-H522 lung
  TGI: 26.7 µM
UACC-62 melanoma
  TGI: 29.2 µM
CCRF-CEM leukemia
  TGI: 35.3 µM
SF-268 CNS
  TGI: 34.8 µM
OVCAR-4 ovarian
  TGI: 43.4 µM
M19-MEL melanoma
  TGI: 26.1 µM
KM20L2 colon
  TGI: 22.6 µM
RPMI-8226 leukemia
  TGI: 26.2 µM
UACC-257 melanoma
  TGI: 32 µM
SNB-75 CNS
  TGI: 22.6 µM
CAKI-1 renal
  TGI: 22 µM
HOP-18 NSCLC
  TGI: 27.3 µM
SK-MEL-2 melanoma
  TGI: 41.4 µM
RXF 393 renal
  TGI: 25.9 µM
M14 melanoma
  TGI: 44.9 µM
SK-OV-3 ovarian
  TGI: 31.3 µM
NCI-H460 lung
  TGI: 28.7 µM
DMS 273 small cell lung
  TGI: 19 µM
NCI-H23 lung
  TGI: 26 µM
ACHN renal
  TGI: 26.5 µM
SNB-78 CNS
  TGI: 36 µM
HCT-15 colon
  TGI: 54.3 µM
A549 NSCLC
  TGI: 21.1 µM
SF-295 CNS
  TGI: 21.9 µM
DLD-1 colon
  TGI: 23.2 µM
A498 renal
  TGI: 25.2 µM
HCT-116 colon
  TGI: 17.3 µM
HOP-92 NSCLC
  TGI: 25.3 µM
SNB-19 CNS
  TGI: 26.7 µM
SW-620 colon
  TGI: 28 µM
HCC-2998 colon
  TGI: 25.7 µM
EKVX NSCLC
  TGI: 30.7 µM
U251 CNS
  TGI: 24.7 µM
SN12C renal
  TGI: 26 µM
LXFL 529 NSCLC
  TGI: 24.8 µM
OVCAR-3 ovarian
  TGI: 28.3 µM
MALME-3M melanoma
  TGI: 30.6 µM
COLO 205 colon
  TGI: 26.9 µM
TK-10 renal
  TGI: 31.7 µM
HT29 colon
  TGI: 25.7 µM
IGROV1 ovarian
  TGI: 29.4 µM
LOX IMVI melanoma
  TGI: 20.8 µM
